Assay [1] has as its target MIF (Homo sapiens (Human), UniProt P14174). Briefly: MIF tautomerase assay using pHPP as substrate. The assay is classed as biochemical. To be noted: cell-free, pHPP substrate 1.5 mM, MIF 3 nM; mean pIC50 of multiple test results.
The subject of assay [2] is U251 cell. Briefly: U251 cell proliferation assay (CCK-8). The assay is classed as cell-based. Conditions: Homo sapiens, U-251; U251 cells; read-out: U251 Profileration pIC50 (converted). The text has this:
[The source words this procedure for another cell line and reports this cell line under the same test.] (§1) The assay measures the ability of a compound to inhibit cell proliferation using Cell Counting Kit-8 (CCK-8), which allows sensitive colorimetric assays for the determination of cell viability in cell proliferation and cytotoxicity assays. The highly water-soluble tetrazolium salt, WST-8, is reduced by dehydrogenase activities in cells to give a yellow-color formazan dye, which is soluble in the tissue culture media. The amount of the formazan dye, generated by the activities of dehydrogenases in cells, is directly proportional to the number of living cells.
(§2) The assay was performed based on the instruction of the manufacturer (Dojindo Molecular Technologies Inc., Rockville, MD, USA). To start the assay, BV2 cells were seeded at a density of […] into 96-well plates and treated with test compounds, which were used at a top final assay concentration of 33.3 μM, diluted in assay medium with 1:3 dilutions to produce 10 point concentration responses, for 48 h. After incubation, the CCK-8 solution (10 μl) was added to each well of the plate and the plates were incubated in incubator at 37° C. for 3 h. Absorbance was recorded three times independently using a microplate reader (Bio-Rad Laboratories, Richmond, CA, USA) at 450 nm.

Assay [3] concerns BV2 cells. Description: BV2 cell proliferation assay (CCK-8). The format is cell-based. To be noted: Mus musculus, BV-2, 48 h treatment, CCK-8, top concentration 33.3 μM, mean pIC50 of multiple test results, read-out: BV2 Profileration pIC50 (converted).
Description: as §1, §2
Selected examples were tested in the BV2 cell proliferation. The data mentioned below represents a mean pIC50 value of multiple test results. It is understood that the data illustrated below may have reasonable variation depending on the specific conditions and procedures used by the person conducting the testing.

Molecules are shown by their SMILES.

MIF, sequence (P14174 2-115): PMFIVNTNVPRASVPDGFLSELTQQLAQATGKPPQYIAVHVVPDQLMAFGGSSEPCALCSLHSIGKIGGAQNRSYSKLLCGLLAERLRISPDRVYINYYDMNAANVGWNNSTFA

Consider `CNCCNc1ccc(C(=O)NCc2nnc(-c3cccs3)o2)c(OC)c1` [Compound 77, 2-methoxy-4-((2-(methylamino)ethyl)amino)-N-((5-(thiophen-2-yl)-1,3,4-oxadiazol-2-yl)methyl)benzamide], for which the “Tautomerase Inhibition pIC50” value in assay [1] amounted to 5.66. Further, the IC50 in assay [2] and in assay [3] was > 1000 µM each time.
Regarding `COc1cc(OC2CCN(C)C2)ccc1C(=O)NCc1nnc(-c2cccs2)o1` (stereo not drawn) [Compound 82, 2-methoxy-4-((1-methylpyrrolidin-3-yl)oxy)-N-((5-(thiophen-2-yl)-1,3,4-oxadiazol-2-yl)methyl)benzamide], the “Tautomerase Inhibition pIC50” value in assay [1] is on record as 5.53. For the same molecule, the IC50 in assay [2] and in assay [3] was > 1000 µM in each case.
With `COc1cc(CC(C)(C)O)ccc1C(=O)NCc1nnc(-c2cccs2)o1` [Compound 84, 4-(2-hydroxy-2-methylpropyl)-2-methoxy-N-((5-(thiophen-2-yl)-1,3,4-oxadiazol-2-yl)methyl)benzamide], the “Tautomerase Inhibition pIC50” value in assay [1] was determined as 6.04. For the same molecule, the IC50 was > 1000 µM in assay [2] and 41.7 µM in assay [3].
For `COc1cc(CN2CCCCC2)ccc1C(=O)NCc1nnc(-c2cccs2)o1` [Compound 85, 2-methoxy-4-(piperidin-1-ylmethyl)-N-((5-(thiophen-2-yl)-1,3,4-oxadiazol-2-yl)methyl)benzamide], in assay [1], the “Tautomerase Inhibition pIC50” value was 5.20. In addition, the IC50 in assay [2] and in assay [3] was > 1000 µM each time.
Take `COc1cc(CN2CCOCC2)ccc1C(=O)NCc1nnc(-c2cccs2)o1` [Compound 86, 2-methoxy-4-(morpholinomethyl)-N-((5-(thiophen-2-yl)-1,3,4-oxadiazol-2-yl)methyl)benzamide]: the “Tautomerase Inhibition pIC50” value in assay [1] came out at 5.47. Moreover, the IC50 in assay [2] and in assay [3] was > 1000 µM each time.

Values taken from patent publication US11884682B2, “Compounds and their uses as MIF inhibitors” (NANJING IMMUNOPHAGE BIOTECH CO., LTD., priority 2020, dated 2024).
